Measurements reported in PubChem BioAssay (NCI).
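All cell lines were grown in 96-well plates and treated with compound for 48 hours. GI50 = concentration required for 50% inhibition of growth. TGI: total growth inhibition.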 Where a SMILES comes first, the peptide text is derived from it. [ ]: non-standard residue; d: D form. The star is where a group is joined. ξ: configuration not given here. 4Abz = Nc1ccc(C(=O)O)cc1; ξL = CC(C)CC(N)C(=O)O; NHOH = ON*

Legend:
Assay in all cases: NCI-60 cell line screen, 48 h
DU-145 prostate = test system: DU-145 prostate
HCC-2998 colon = test system: HCC-2998 colon
HCT-116 colon = test system: HCT-116 colon
KM12 colon = test system: KM12 colon
M14 melanoma = test system: M14 melanoma
SK-MEL-28 melanoma = test system: SK-MEL-28 melanoma
SK-MEL-5 melanoma = test system: SK-MEL-5 melanoma
SN12C renal = test system: SN12C renal
SNB-19 CNS = test system: SNB-19 CNS
UACC-62 melanoma = test system: UACC-62 melanoma

Structure (SMILES)	GI50 (DU-145 prostate) [µM]	TGI (DU-145 prostate) [µM]	GI50 (HCC-2998 colon) [µM]	TGI (HCC-2998 colon) [µM]	GI50 (HCT-116 colon) [µM]	TGI (HCT-116 colon) [µM]	GI50 (KM12 colon) [µM]	TGI (KM12 colon) [µM]	GI50 (M14 melanoma) [µM]	TGI (M14 melanoma) [µM]	GI50 (SK-MEL-28 melanoma) [µM]	TGI (SK-MEL-28 melanoma) [µM]	GI50 (SK-MEL-5 melanoma) [µM]	TGI (SK-MEL-5 melanoma) [µM]	GI50 (SN12C renal) [µM]	TGI (SN12C renal) [µM]	GI50 (SNB-19 CNS) [µM]	TGI (SNB-19 CNS) [µM]	GI50 (UACC-62 melanoma) [µM]	TGI (UACC-62 melanoma) [µM]
CC([C@H]1CCC2C3CCC4C(=O)C(NC=O)=CC[C@]4(C)C3CC[C@@]21C)N(C)C (some centres not stated)	8.07	25.1	4.09	14.7	1.42	3.95	2.88	14.2	2.08	4.39	1.86	3.55	1.54	3.04	2.92	14.9	8.39	22.1	1.94	3.98
NC(=O)c1ncn(C2CCC(CP(=O)(O)O)C2)c1N (configuration not stated)		> 100		> 100		> 100		> 100		> 100		> 100		> 100		> 100		> 100		> 100
COc1ccc2c(c1)Cc1cc(N=[N+]([O-])c3ccc4c(c3)Cc3cc(OC)ccc3-4)ccc1-2		> 100		27.3		> 100		> 100		> 100		> 100		42.8		> 100		> 100		85.4
COc1ccc(-n2cc(-c3ccc(Cl)cc3)[nH]c2=S)cc1Cl	37.2	> 100	57.4	> 100	47.2	> 100	> 100	> 100			36.5	> 100	42.1	> 100	39.1	> 100	20.1	55	83.5	> 100
O=C1C=Cc2cc3ccccc3c3cccc1c23	9.53	> 100	0.413	3.18	3.16	> 100	12.1	35.6	15.7	> 100	10.5	> 100	2.73	5.87	2.71	11.3	8.51	> 100	1.81	6.43
O=C1/C(=C/c2ccc(F)cc2)CN(Cc2cn(CCNc3ccnc4cc(Cl)ccc34)nn2)C/C1=C\c1ccc(F)cc1	1.32	2.63	1.19	2.55	0.258	0.721	0.328	1.19	1.92	3.74	1.74	3.13	1.7	3.06	1.58	3.09	1.57	2.92	1.56	2.95
Cc1c(Br)cccc1NC(=O)c1sc2nc3c(cc2c1N)CN(Cc1ccccc1)CC3	0.168	2.99	1.6	> 50	0.182	5.58	0.168	10.2	0.107	0.386	0.977	> 50	0.201	8.18	0.384	> 50	0.448	> 50	0.372	> 50
COc1ccc(NC(=O)CC(=O)n2nc(-c3ccccc3)c(N=Nc3ccc(C)cc3)c2-c2ccccc2)cc1		> 100		> 100		> 71		> 100		> 100		> 100		> 78.1		81.9		49.4		49.5
COc1cc(C2CC(c3ccc(C)cc3)=NN2C(C)=O)ccc1Oc1ccnc2cc(Cl)ccc12 (configuration not stated)	> 100	> 100	> 100	> 100	0.681	> 100	> 100	> 100	> 100	> 100	> 100	> 100	> 100	> 100	> 100	> 100	37.4	> 100	> 100	> 100
COC(=O)C1=C(O)C(C(=O)OC)[C@@]2(O)[C@@H](C(=O)OC)C(c3ccccc3C(F)(F)F)C[C@@H]1[C@@H]2C(=O)OC (some centres not stated)	3.23	10.9	14.2	27.2	6.34	18.8	16.9	32.8	13.9	47.4	2.13	14.5	3.46	13.2	4.33	15.2	1.81	13.6	4.09	15
S=c1sc2ccccc2n1CN1CCN(Cc2ccccc2)CC1		> 100		> 100		> 100		> 100		> 100				> 100		> 100		> 100		> 100
CC(=O)c1c[nH]c2ccc(-c3ccnc(Nc4ccc(NC(=O)c5cccc(F)c5)c(CN5CCOCC5)c4)n3)cc12	0.185	> 100	0.292	16.6	0.0608	14.7	0.0892	1.35	0.188	0.794	0.233	4.25	0.135	0.463	0.153	> 23.3	0.218	9.8	0.127	0.43
N#CC1=C(N)Oc2c(sc3c(F)cccc23)C1c1ccc(Cl)cc1 (configuration not stated)	3.49	12.9	7.25	22.6	3.7	13.9	2.75	18.9	2.19	6.57	5.86	28.2	3.68	15.1	4.33	16.2	3.32	16.3	3.26	17.5
COc1ccc(CNCCN2C(=O)c3ccc4c5c(ccc(c35)C2=O)C(=O)N(CCNCc2ccc(OC)cc2)C4=O)cc1	0.468	1.7	0.304	1.05	0.147	0.688	0.2	0.623	0.169	0.348	1.21	2.56	0.15	0.285	0.159	0.323	0.23	0.717	0.392	1.5
C=C1c2c(C)nn(-c3ccccc3)c2N(C)C23C[C@@H]1C1(C)c4c(C)nn(-c5ccccc5)c4N(C)C(C)(C[C@H]12)C3 (some centres not stated)	8.7	> 100	6.21	> 100	3.72	> 100					22.6	> 100			9.92	> 100	11	79.6	4.38	> 100
CC(C)n1c2c(c3ccccc3c1=O)C(=O)c1ccccc1-2		> 100		> 100		> 100		> 100		> 100		> 100		> 100		> 100		> 100		> 100

Structure (SMILES)	GI50 (DU-145 prostate) [µM]	TGI (DU-145 prostate) [µM]	GI50 (HCC-2998 colon) [µM]	TGI (HCC-2998 colon) [µM]	GI50 (HCT-116 colon) [µM]	TGI (HCT-116 colon) [µM]	GI50 (KM12 colon) [µM]	TGI (KM12 colon) [µM]	GI50 (M14 melanoma) [µM]	TGI (M14 melanoma) [µM]	GI50 (SK-MEL-28 melanoma) [µM]	TGI (SK-MEL-28 melanoma) [µM]	GI50 (SK-MEL-5 melanoma) [µM]	TGI (SK-MEL-5 melanoma) [µM]	GI50 (SN12C renal) [µM]	TGI (SN12C renal) [µM]	GI50 (SNB-19 CNS) [µM]	TGI (SNB-19 CNS) [µM]	GI50 (UACC-62 melanoma) [µM]	TGI (UACC-62 melanoma) [µM]
COc1ccc(/C(C#N)=C/c2nc3c(N4CCOCC4)nc(Cl)nc3n2C)cc1OC	< 0.01	1.3	0.0163	1.22	< 0.01	1.47	< 0.01	1.26	< 0.01		1.1	2.43	< 0.0108	0.0347	< 0.01	1.48	< 0.01	2.91	< 0.01	1.68
CC(C)CC(NC(=O)[C@@H]1CCCN1C(=O)CNC(=O)c1ccc(N)cc1)C(=O)N[C@H](C)C(=O)NO (some centres not stated) (H-[4Abz]GP[ξL][dA]-{NHOH})	> 100	> 100	> 100	> 100	> 100	> 100	> 100	> 100	> 100	> 100	> 100	> 100	> 100	> 100			> 100	> 100	> 100	> 100
NC(=O)NC1=NCCC(=O)N1CCc1c[nH]c2ccccc12		52		44.4		26.4		52.4		29.3		41.2		34.2		54.7		54.6		36.9
CC(=O)O/N=C1\C=Cc2c(no[n+]2[O-])C1=O		32		38.7		27.6		33.7		33.2		36.9		31.6		32.9		> 100		30.2
COC(=O)C(=O)C(C(=O)C(=O)Nc1ccc(Cl)cc1Cl)c1nc2ccc(Cl)cc2[nH]c1=O (configuration not stated)		> 100		> 100		> 100		> 100		> 100		> 100		> 100		> 100		> 100		> 100
O=C1CCc2cc([N+](=O)[O-])ccc2O1		> 100		> 100		> 100				> 100		> 100		> 100		> 100		> 100		> 100
c1ccc2c(c1)N=c1ccccc1=P21c2ccccc2Nc2ccccc21		10.5		4.06		1.76		2.13		5.67		11.7		0.42		13.5		7.26		> 100
O=C(O)/C=C/C(=O)Nc1cccc2c1-c1ccccc1C2=O		> 81.3		71.8		> 100		> 100		> 100		> 100		> 100		> 100		> 100		> 100
COc1cc2c(cc1OC)[C@@H]1[C@H](C2=O)c2ccc([N+](=O)[O-])cc2C(=O)N1CCCBr	0.553	> 20.4	2.66	> 100	< 0.01	0.0133	0.406	4.6	< 0.01	0.0139	2.54	> 100	< 0.01	0.123	0.277	0.934	0.474	> 100	< 0.046	1.16
OCCOCn1nc(-c2ccccc2)nc1-c1cnccn1		> 100		> 100		> 100		> 100		> 100		> 100		> 100		> 100		> 100		> 100
COC1=C(NC(C)=O)C(=O)c2nc3n(c2C1=O)CCC3		35.8		65.8		29.4		> 57.8		32.8		32.9		31.5		32.3		67.6		32.4
Cc1cc(CC(O)(C(F)(F)F)C(F)(F)F)cc(CC(O)(C(F)(F)F)C(F)(F)F)n1		7.94		14.2		6.09		5.13		12		9.54		3.34		9.25		> 100		12.5
Oc1ccc(Br)cc1CN1CCN(Cc2ccc(Cl)cc2)CC1	46.3	> 100	30.8	> 100	21.1	> 100	26.3	> 100			24	> 100	13	26.4	27.1	> 100	37.8	> 100	17.6	> 100
C=CC[n+]1c(/C=C2\Sc3ccccc3N2C)sc(-c2ccccc2)c1-c1ccccc1	0.439	12.2	0.401	15.7	0.36	11.5	0.331	1.95	0.373	1.59	0.421	7.72	0.173	0.32	0.298	1.47	0.375	15.1		
Cc1ccc(NC(=O)C(=O)C2C(=O)C3=C(CC2(C)C)NC2C=CC=CC2S3)c(C)c1 (configuration not stated)		> 100		> 100		> 100		> 100				> 100		> 100		> 100		> 100		> 100
